This passage reports IC50 results from patent US7217722B2 (Kirin Beer Kabushiki Kaisha, priority 2000, dated 2007).

Sequence of Rho kinase (fused protein of bovine Rho kinase catalyst region and glutathione S-transferase) (Q28021 92-354 limits assumed): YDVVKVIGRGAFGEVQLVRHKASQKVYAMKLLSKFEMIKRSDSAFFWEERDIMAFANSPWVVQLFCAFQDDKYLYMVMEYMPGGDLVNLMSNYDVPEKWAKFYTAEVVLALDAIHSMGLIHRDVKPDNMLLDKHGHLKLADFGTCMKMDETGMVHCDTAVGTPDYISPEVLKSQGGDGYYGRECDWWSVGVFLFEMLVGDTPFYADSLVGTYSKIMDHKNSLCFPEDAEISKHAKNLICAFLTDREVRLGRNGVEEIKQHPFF

The assay concerns the target Rho kinase (fused protein of bovine Rho kinase catalyst region and glutathione S-transferase) (Bos taurus, UniProt Q28021). The experiment in a line: Rho kinase inhibitory activity (phosphorylation of S6 231–239 substrate, γ32P-ATP). Type of assay: biochemical. The conditions noted are these: concentration inhibiting substrate phosphorylation by 50%. As to the method: This permits the substrate to be labeled with the radioisotope.
Thereafter, the substrate was adsorbed to a filter paper. ATP was washed away with a phosphoric acid solution, and the amount of the phosphorylated substrate was then measured with a liquid scintillation counter.
On to `c1ccc(CNC2CCC(Nc3ccc4[nH]ncc4c3)CC2)cc1` (mixture of isomers) [Example 171, N1-Benzyl-N4-(1H-5-indazolyl)-1,4-cyclohexanediamine], for which the IC50 turned out to be 90 nM. This lies in the double-digit nanomolar range. In the case of `O=C(Nc1ccncc1)Nc1c(Cl)cc(Cl)cc1Cl` [Example 1, N-(4-Pyridyl)-N′-(2,4,6-trichlorophenyl)urea] it was 200 nM; in that of `O=C(COc1c(Br)cc(F)cc1Br)Nc1ccncc1` [Example 2, N1-(4-Pyridyl)-2-(2,6-dibromo-4-fluorophenoxy)acetamide], 2210 nM.

Regarding `O=C(COc1c(Cl)cccc1Cl)Nc1ccncc1` [Example 3, N1-(4-Pyridyl)-2-(2,6-dichlorophenoxy)acetamide], the IC50 was determined as 910 nM. In the case of `O=C(/C=C/c1c(Cl)cccc1Cl)Nc1ccncc1` [Example 7, N1-(4-Pyridyl)-(E)-3-(2,6-dichlorophenyl)-2-propeneamide] it was 2540 nM; in that of `O=C(Nc1ccncc1)Nc1c(F)cccc1F` [Example 8, N-(2,6-Difluorophenyl)-N′-(4-pyridyl)urea], 2000 nM. Molecule `O=C(Nc1ccncc1)Nc1c(Cl)cccc1Cl` [Example 9, N-(2,6-Dichlorophenyl)-N′-(4-pyridyl)urea] displayed a concentration for half-maximal inhibition (IC50) of 850 nM. In the case of `O=C(Nc1ccc2[nH]ncc2c1)Nc1c(Cl)cccc1Cl` [Example 13, N-(2,6-Dichlorophenyl)-N′-(1H-5-indazolyl)urea] it was 980 nM; in that of `O=C(COc1c(Cl)cccc1Cl)Nc1ccc2[nH]ncc2c1` [Example 14, N1-(1H-5-Indazolyl)-2-(2,6-dichlorophenoxy)acetamide], 1140 nM. Turning to `O=C(COc1c(Cl)cc(F)cc1Cl)Nc1ccc2[nH]ncc2c1` [Example 15, N1-(1H-5-Indazolyl)-2-(2,6-dichloro-4-fluorophenoxy)acetamide], it took 460 nM to reach half-maximal inhibition (IC50). In the case of `O=C(CSc1c(Cl)cccc1Cl)Nc1ccncc1` [Example 17, N1-(4-Pyridyl)-2-[(2,6-dichlorophenyl)-sulfanyl]acetamide] it was 9600 nM; in that of `O=C(Nc1ccncc1)Nc1c(F)cccc1Cl` [Example 18, N-(2-Chloro-6-fluorophenyl)-N′-(4-pyridyl)urea], 2870 nM; in that of `O=C(Nc1ccncc1)NC1CCCCC1` [Example 19, N-Cyclohexyl-N′-(4-pyridyl)urea], 7260 nM. In the case of `Brc1cccc(CN2CCC(Nc3ccc4[nH]ncc4c3)CC2)c1` [Example 23] it was 124 nM; in that of `O=C(COc1c(Cl)cc(F)cc1Cl)Nc1ccncc1` [Example 24, N1-(4-Pyridyl)-2-(2,6-dichloro-4-fluorophenoxy)acetamide], 480 nM; in that of `CCOC(=O)c1cc(Cl)c(OCC(=O)Nc2ccncc2)c(Cl)c1` [Example 26, Ethyl 3,5-dichloro-4-[2-oxo-2-(4-pyridylamino)ethoxy]benzoate], 1030 nM. For `O=C(COc1c(F)cc(F)cc1F)Nc1ccncc1` [Example 28, N1-(4-Pyridyl)-2-(2,4,6-trifluorophenoxy)acetamide], the IC50 was 8110 nM. The same measure for `CCC(=O)c1cc(F)c(OCC(=O)Nc2ccncc2)c(F)c1` [Example 29, N1-(4-Pyridyl)-2-(2,6-difluoro-4-propionyl-phenoxy)acetamiden]: 8590 nM; for `Cc1cc(Cl)c(OCC(=O)Nc2ccncc2)c(Cl)c1` [Example 30, N1-(4-Pyridyl)-2-(2,6-dichloro-4-methylphenoxy)acetamide]: 1150 nM; for `O=C(CC1CCCCC1)Nc1ccncc1` [Example 31, N1-(4-Pyridyl)-2-cyclohexylacetamide]: 5290 nM. In the case of `O=C(COc1c(Cl)cc(F)cc1Cl)Nc1ncnc2[nH]ncc12` [Example 32, N1-(1H-Pyrazolo[3,4-d]pyrimidin-4-yl)-2-(2,6-dichloro-4-fluorophenoxy)acetamide] it was 1370 nM; in that of `O=C(Nc1ccc2[nH]ncc2c1)C1CCCCC1` [Example 33], 470 nM.

As usually defined, the IC50 is the concentration that gives 50% inhibition. The low end stands for greater potency in that assay, the high end for weaker potency in that assay.
